The text below walks through data of ChEMBL document CHEMBL5113480, “Discovery of novel biphenyl-substituted pyridone derivatives as potent non-nucleoside reverse transcriptase inhibitors with promising oral bioavailability” (Eur J Med Chem, 2022).

The subject of series [1] is Human immunodeficiency virus 1. As to the kind of experiment: Antiviral activity against HIV-1 L100I mutant infected in human MT4 cells assessed as reduction in viral replication by MTT assay. The format is functional, organism-based. The following applies: Human immunodeficiency virus 1, L100I mutant.
The test system of series [2] is Human immunodeficiency virus 1. As to the kind of experiment: Antiviral activity against HIV-1 E138K mutant infected in human MT4 cells assessed as reduction in viral replication by MTT assay. The format is functional, organism-based. The settings on record: Human immunodeficiency virus 1, E138K mutant.
The test system of series [3] is Human immunodeficiency virus 1. Put plainly: Antiviral activity against HIV-1 K103N mutant infected in human MT4 cells assessed as reduction in viral replication by MTT assay. Type of series: functional, organism-based. The following applies: Human immunodeficiency virus 1, K103N mutant.
Series [4] is described as follows: Cytotoxicity against human MT4 cells assessed as reduction on cell growth by MTT assay. Type of series: toxicity, cell-based.
In series [5] the test system is Human immunodeficiency virus 1. As to the kind of experiment: Antiviral activity against HIV-1 IIIB infected in human MT4 cells assessed as reduction in viral replication by MTT assay. The format is functional, organism-based. The following applies: Human immunodeficiency virus 1, IIIB.
Series [6] has as its system Human immunodeficiency virus 1. Put plainly: Antiviral activity against HIV-1 Y181C mutant infected in human MT4 cells assessed as reduction in viral replication by MTT assay. Type of series: functional, organism-based. The settings on record: Human immunodeficiency virus 1, Y181C mutant.
In series [7] the test system is Human immunodeficiency virus 1. Put plainly: Antiviral activity against HIV-1 ROD infected in human MT4 cells assessed as reduction in viral replication by MTT assay. The format is functional, organism-based.
The test system of series [8] is Human immunodeficiency virus 1. As to the kind of experiment: Antiviral activity against HIV-1 K103N-Y181C mutant infected in human MT4 cells assessed as reduction in viral replication by MTT assay. Type of series: functional, organism-based. The settings on record: Human immunodeficiency virus 1, K103N-Y181C mutant.
For series [9], the system named is Human immunodeficiency virus 1. Put plainly: Antiviral activity against HIV-1 F227L-V106A mutant infected in human MT4 cells assessed as reduction in viral replication by MTT assay. The format is functional, organism-based. The following applies: Human immunodeficiency virus 1, F227L-V106A mutant.
Series [10] relates to Human immunodeficiency virus 1. As to the kind of experiment: Antiviral activity against HIV-1 Y188L mutant infected in human MT4 cells assessed as reduction in viral replication by MTT assay. The following applies: Human immunodeficiency virus 1, Y188L mutant. Type of series: functional, organism-based.
A short description of series [11]: Selectivity index, ratio of CC50 for cytotoxicity against human MT4 cells to EC50 of Anti-HIV activity against HIV-1 IIIB infected in human MT4 cells. Type of series: toxicity, cell-based. The settings on record: read-out: Ratio CC50/EC50.
In series [12] the target is Human immunodeficiency virus type 1 reverse transcriptase (Human immunodeficiency virus 1, UniProt Q72547). As to the kind of experiment: Inhibition of wild type HIV-1 Reverse transcriptase.

Consider `Cn1c(Cn2ccc(C(F)(F)F)c(Oc3ccc(-c4cccc(F)c4)c(F)c3)c2=O)n[nH]c1=O`, for which the concentration giving a half-maximal response (EC50) in [1] is 1.52 µM; in series [2], 2.16 µM; in [3] it was 4.39 µM; in series [5] it was 1.42 µM; in series [6], 28.6 µM; in [7] it was > 35 µM. The EC50 in series [8], in series [9] and in [10] was > 35 µM throughout. For the same compound, in series [4], the cytotoxic concentration (CC50) came to 51.5 µM. In addition, the selectivity ratio in [11] was found to be 36.4. Also, half-maximal inhibition in [12] (IC50) required 2.33 µM.

For the compound `Cc1cccc(-c2ccc(Oc3c(C(F)(F)F)ccn(Cc4n[nH]c(=O)n4C)c3=O)cc2C)c1`, the concentration giving a half-maximal response (EC50) was 3.23 µM in series [1]; > 35 µM in [2]; > 35 µM in series [3]; 4.38 µM in [5]; 7.51 µM in series [6]; > 35 µM in [7]. The concentration giving a half-maximal response (EC50) in series [8], in series [9] and in [10] was > 35 µM each time. The CC50 in series [4] is 23.8 µM. Moreover, the selectivity ratio in series [11] was 5.43. Moreover, the IC50 in series [12] was 6.54 µM.

On to `Cc1cc(Oc2c(C(F)(F)F)ccn(Cc3n[nH]c(=O)n3C)c2=O)ccc1-c1ccc(F)c(C#N)c1`, for which the concentration for a half-maximal effect (EC50) was 1.58 µM in series [1]; 1.37 µM in series [2]; 2.33 µM in [3]; 0.6 µM in [5]; 6.91 µM in series [6]; > 35 µM in series [7]. In addition, the concentration for a half-maximal effect (EC50) in series [8], in [9] and in [10] was > 35 µM in each case. In addition, the half-maximal cytotoxic concentration (CC50) in series [4] came out at 42.5 µM. The selectivity ratio in [11] amounted to 70.6. The IC50 in series [12] stood at 1.46 µM.

For `Cc1cc(Oc2c(C(F)(F)F)ccn(Cc3n[nH]c(=O)n3C)c2=O)ccc1-c1cc(F)cc(C#N)c1`, the EC50 in series [1] is 3.84 µM; in [2] it was 2.54 µM; in series [3], 8.02 µM; in [5], 1.55 µM; in series [6] it was > 35 µM; in series [7], > 35 µM. Further, the EC50 in [8], in [9] and in series [10] was > 35 µM each time. Moreover, the 50% cytotoxic concentration (CC50) in series [4] came to 45.6 µM. Besides, the selectivity ratio in [11] was determined as 29.4. This compound gave an IC50 in series [12] of 3.67 µM.

With `Cn1c(Cn2ccc(C(F)(F)F)c(Oc3ccc(-c4cc(F)cc(C#N)c4)c(F)c3)c2=O)n[nH]c1=O`, the half-maximal effective concentration (EC50) in series [1] was 1.86 µM; in series [2], 1.34 µM; in [3], 2.47 µM; in series [5], 0.74 µM; in [6] it was 12.1 µM; in series [7], > 35 µM. The values for the EC50 in series [8], in [9] and in series [10] were 36.6 µM, > 35 µM and 39.8 µM, respectively. Also, the 50% cytotoxic concentration (CC50) in [4] amounted to 105 µM. Also, in [11], the selectivity ratio came out at 143. In addition, the IC50 in [12] turned out to be 1.02 µM.

On to `Cn1c(Cn2ccc(C(F)(F)F)c(Oc3ccc(-c4cccc(C#N)c4)cc3F)c2=O)n[nH]c1=O`, for which the EC50 is 4.93 µM in series [1]; 5.41 µM in series [2]; 7.38 µM in series [3]; 3.68 µM in series [5]; > 35 µM in series [6]; > 35 µM in series [7]. Moreover, the EC50 in [8], in series [9] and in [10] was > 35 µM throughout. Further, in series [4], the CC50 was 35.3 µM. For the same compound, the selectivity ratio in series [11] was 9.6. The IC50 in series [12] amounted to 5 µM.

As for `Cc1cc(Oc2c(C(F)(F)F)ccn(Cc3n[nH]c(=O)n3C)c2=O)ccc1-c1cccc(C#N)c1`, the EC50 in series [1] was 1.34 µM; in series [2], 1.01 µM; in series [3] it was 2.09 µM; in series [5] it was 0.7 µM; in series [6] it was 6.38 µM; in series [7] it was > 35 µM. The EC50 was 33 µM in series [8], > 35 µM in series [9] and 38.8 µM in series [10]. Also, the CC50 in [4] worked out at 82.7 µM. Also, the selectivity ratio in [11] stood at 118. This compound showed an IC50 in series [12] of 1.53 µM.

As to `Cn1c(Cn2ccc(C(F)(F)F)c(Oc3ccc(-c4ccc(C#N)cc4)c(F)c3)c2=O)n[nH]c1=O`, the EC50 is 1.19 µM in series [1]; 1.96 µM in series [2]; 3.65 µM in series [3]; 1.28 µM in [5]; 19.4 µM in [6]; > 35 µM in series [7]. Also, the EC50 in series [8], in [9] and in series [10] was > 35 µM each time. In addition, the CC50 in series [4] was determined as 48.5 µM. Moreover, the selectivity ratio in series [11] is 37.8. Further, in series [12], the IC50 came out at 1.52 µM.

For the compound `Cc1cc(Oc2c(C(F)(F)F)ccn(Cc3n[nH]c(=O)n3C)c2=O)ccc1-c1cccc(F)c1`, the EC50 was 2.14 µM in series [1]; 4 µM in series [2]; 10.9 µM in series [3]; 2.77 µM in [5]; > 35 µM in [6]; > 35 µM in series [7]. Also, the EC50 in [8], in [9] and in series [10] was > 35 µM each time. Further, in [4], the CC50 was 55.9 µM. The selectivity ratio in series [11] was 20.1. The compound further yielded an IC50 in series [12] of 4.71 µM.

Turning to `Cc1cc(Oc2c(C(F)(F)F)ccn(Cc3n[nH]c(=O)n3C)c2=O)ccc1-c1ccc(C#N)cc1`, the half-maximal effective concentration (EC50) is 2.33 µM in [1]; 3.68 µM in series [2]; 8.35 µM in [3]; 2.17 µM in series [5]; 8.83 µM in series [6]; > 35 µM in series [7]. The half-maximal effective concentration (EC50) in series [8], in [9] and in series [10] was > 35 µM each time. Besides, the CC50 in series [4] was 52.1 µM. Besides, in series [11], the selectivity ratio is 24. For the same compound, half-maximal inhibition in series [12] (IC50) was put at 4.2 µM.

For the compound `Cc1ccccc1-c1ccc(Oc2c(C(F)(F)F)ccn(Cc3n[nH]c(=O)n3C)c2=O)cc1F`, the EC50 in series [1] is 5.3 µM; in series [2] it was 4.51 µM; in [3], 7.78 µM; in series [5] it was 3.93 µM; in [6] it was 5.54 µM; in series [7] it was > 35 µM. Also, the EC50 in [8] is 115 µM; in series [9], > 35 µM; in [10], 104 µM. For the same compound, the CC50 in [4] came out at 33.8 µM. Besides, in [11], the selectivity ratio turned out to be 8.6. Inhibition in series [12] was half-maximal at 3.21 µM (IC50).

With `Cn1c(Cn2ccc(C(F)(F)F)c(Oc3ccc(-c4ccc(F)c(C#N)c4)c(F)c3)c2=O)n[nH]c1=O`, the concentration giving a half-maximal response (EC50) in [1] is 1.75 µM; in [2], 1.51 µM; in series [3], 2.14 µM; in series [5] it was 0.89 µM; in series [6] it was 22.3 µM; in series [7], > 35 µM. The results for the EC50 in series [8], in [9] and in series [10] were 44.8 µM, 42.4 µM and 41.4 µM, respectively. For the same compound, the cytotoxic concentration (CC50) in series [4] is 69.5 µM. The selectivity ratio in series [11] is 78.5. It took 1.12 µM to reach half-maximal inhibition in [12] (IC50).

With `Cn1c(Cn2ccc(C(F)(F)F)c(Oc3ccc(-c4cccc(C#N)c4)c(F)c3F)c2=O)n[nH]c1=O`, the EC50 was 1.59 µM in series [1]; 1.6 µM in series [2]; 2.87 µM in series [3]; 0.96 µM in series [5]; 8.36 µM in [6]; > 35 µM in series [7]. Also, the EC50 in [8], in series [9] and in series [10] was > 35 µM in each case. Further, the CC50 in series [4] was 48.8 µM. For the same compound, the selectivity ratio in [11] amounted to 50.8. In addition, half-maximal inhibition in series [12] (IC50) required 1.31 µM.
